Data published in PubChem BioAssay AID212 (DTP/NCI, 2004).
Where “and” joins values, the source holds several entries; their conditions need not be identical. Equal entries are not always repeated. Inconclusive results are not listed.

Test system: BDF1 mice, colon carcinoma 38 sc, T/C %
Experiment: NCI In Vivo Anticancer Drug Screen. Data for tumor model Colon Carcinoma 38 (subcutaneous) in B6D2F1 (BDF1) mice
Conditions: endpoint: median tumor weight (est.), higher = larger tumour
Procedure: The antitumor activity of compounds was measured in mice bearing transplantable tumors. Survival or tumor size were measured and the results are expressed as the measurement made in the treated group (T) divided by the measurement made in the vehicle treated control group (C). The tumor model used in this assay is Colon Carcinoma 38 (subcutaneous) in B6D2F1 (BDF1) mice

[1] = dose: 6.25 mg/kg/injection, schedule: Q07DX002 (ip), vehicle: saline
[2] = dose: 12.5 mg/kg/injection, schedule: Q07DX002 (ip), vehicle: saline
[3] = dose: 12.5 mg/kg/injection, schedule: Q07DX003 (ip), vehicle: saline
[4] = dose: 25.0 mg/kg/injection, schedule: Q07DX002 (ip), vehicle: saline

SMILES: COc1cccc2c1C(=O)c1c(O)c3c(c(O)c1C2=O)CC(O)(/C(C)=N/NC(=O)CCCCC(=O)N/N=C(\C)C1(O)Cc2c(O)c4c(c(O)c2C(OC2CC(N)C(O)C(C)O2)C1)C(=O)c1c(OC)cccc1C4=O)CC3OC1CC(N)C(O)C(C)O1 (configuration not stated)
- T/C [1]: 46 % of control
- T/C (dose: 6.25 mg/kg/injection, schedule: Q07DX002 (ip), vehicle: water): 68 % of control
- T/C [2]: 32 % of control
- T/C (dose: 12.5 mg/kg/injection, schedule: Q07DX002 (ip), vehicle: water): 21 % of control

SMILES: O=C1c2cccc3cc([N+](=O)[O-])cc(c23)C(=O)N1CCN1CCCC1
- T/C (dose: 3.13 mg/kg/injection, schedule: Q07DX002 (ip), vehicle: saline with Tween-80): 107 % of control
- T/C (dose: 6.25 mg/kg/injection, schedule: Q07DX002 (ip), vehicle: saline with Tween-80): 71 % of control
- T/C (dose: 12.5 mg/kg/injection, schedule: Q07DX002 (ip), vehicle: saline with Tween-80): 84 % of control
- T/C (dose: 25.0 mg/kg/injection, schedule: Q07DX002 (ip), vehicle: saline with Tween-80): 67 % of control

SMILES: COC1=NCN=C2SC=C(N)N=C12
- T/C [1]: 102 % of control
- T/C [2]: 91 % of control
- T/C [3]: 104 % of control
- T/C [4]: 101 % of control
- T/C (dose: 50.0 mg/kg/injection, schedule: Q07DX002 (ip), vehicle: saline): 85 % of control
- T/C (dose: 50.0 mg/kg/injection, schedule: Q07DX003 (ip), vehicle: saline): 151 % of control
- T/C (dose: 100.0 mg/kg/injection, schedule: Q07DX003 (ip), vehicle: saline): 154 % of control

SMILES: CN(Cc1cnc2nc(N)nc(N)c2n1)c1ccc(C(=O)N[C@@H](CCC(=O)O)C(=O)O)cc1
- T/C (dose: 1.25 mg/kg/injection, schedule: Q07DX002 (ip), vehicle: sodium bicarbonate): 105 % of control
- T/C (dose: 2.5 mg/kg/injection, schedule: Q07DX002 (ip), vehicle: sodium bicarbonate): 167 % of control and 170 % of control
- T/C (dose: 5.0 mg/kg/injection, schedule: Q07DX002 (ip), vehicle: sodium bicarbonate): 122 % of control
- T/C (dose: 10.0 mg/kg/injection, schedule: Q07DX002 (ip), vehicle: sodium bicarbonate): 111 % of control
- T/C (dose: 20.0 mg/kg/injection, schedule: Q07DX002 (ip), vehicle: sodium bicarbonate): 115 % of control and 117 % of control

SMILES: CS(=O)(=O)OCCCNCCCOS(C)(=O)=O
- T/C (dose: 9.3 mg/kg/injection, schedule: Q07DX003 (ip), vehicle: saline): 43 % of control
- T/C (dose: 18.75 mg/kg/injection, schedule: Q07DX003 (ip), vehicle: saline): 73 % of control
- T/C (dose: 37.5 mg/kg/injection, schedule: Q07DX003 (ip), vehicle: saline): 58 % of control
- T/C (dose: 75.0 mg/kg/injection, schedule: Q07DX003 (ip), vehicle: saline): 36 % of control

SMILES: C/C=C/C=C/c1cc2cc3c(c(O)c2c(=O)[nH]1)C1(CC3)C(O)=c2c(=O)c3c(=O)cc(OC)c(=O)c=3c(=O)c2=C1O (configuration not stated)
- T/C (dose: 0.06 mg/kg/injection, schedule: Q07DX002 (ip), vehicle: DMSO): 74 % of control and 97 % of control
- T/C (dose: 0.12 mg/kg/injection, schedule: Q07DX002 (ip), vehicle: DMSO): 115 % of control and 91 % of control
- T/C (dose: 0.15 mg/kg/injection, schedule: Q07DX002 (ip), vehicle: DMSO): 81 % of control
- T/C (dose: 0.25 mg/kg/injection, schedule: Q07DX002 (ip), vehicle: DMSO): 57 % of control
- T/C (dose: 0.3 mg/kg/injection, schedule: Q07DX002 (ip), vehicle: DMSO): 85 % of control
- T/C (dose: 0.5 mg/kg/injection, schedule: Q07DX002 (ip), vehicle: DMSO): 79 % of control and 93 % of control
- T/C (dose: 0.61 mg/kg/injection, schedule: Q07DX002 (ip), vehicle: DMSO): 87 % of control
- T/C (dose: 1.0 mg/kg/injection, schedule: Q07DX002 (ip), vehicle: DMSO): 114 % of control and 102 % of control
- T/C (dose: 1.22 mg/kg/injection, schedule: Q07DX002 (ip), vehicle: DMSO): 81 % of control
- T/C (dose: 2.0 mg/kg/injection, schedule: Q07DX002 (ip), vehicle: DMSO): 121 % of control

SMILES: CC(=O)OCC1OC(OC(C)=O)C(NC(=O)N(CCCl)N=O)C(OC(C)=O)C1OC(C)=O (configuration not stated)
- T/C (dose: 0.75 mg/kg/injection, schedule: Q07DX002 (ip), vehicle: Klucel (hydroxypropylcellulose) (HPC)): 100 % of control
- T/C (dose: 1.5 mg/kg/injection, schedule: Q07DX002 (ip), vehicle: Klucel (hydroxypropylcellulose) (HPC)): 82 % of control and 96 % of control
- T/C (dose: 3.0 mg/kg/injection, schedule: Q07DX002 (ip), vehicle: Klucel (hydroxypropylcellulose) (HPC)): 64 % of control

SMILES: Cc1ncc(CNC(=O)N(CCCl)N=O)c(N)n1
- T/C (dose: 6.25 mg/kg/injection, schedule: Q07DX003 (ip), vehicle: saline): 82 % of control
- T/C (dose: 12.5 mg/kg/injection, schedule: Q07DX002 (ip), vehicle: Klucel (hydroxypropylcellulose) (HPC)): 73 % of control
- T/C [3]: 88 % of control
- T/C (dose: 25.0 mg/kg/injection, schedule: Q07DX002 (ip), vehicle: Klucel (hydroxypropylcellulose) (HPC)): 32 % of control
- T/C (dose: 25.0 mg/kg/injection, schedule: Q07DX003 (ip), vehicle: saline): 31 % of control

SMILES: [Cl][Sn]([c]1ccccc1)[c]1ccccc1
- T/C [1]: 113 % of control
- T/C [2]: 108 % of control
- T/C (dose: 12.5 mg/kg/injection, schedule: Q09DX002 (ip), vehicle: saline): 95 % of control
- T/C [4]: 89 % of control
- T/C (dose: 25.0 mg/kg/injection, schedule: Q09DX002 (ip), vehicle: saline): 93 % of control
